Legend:
Assay type in all cases: biochemical
activated JNK3 = molecular target: T1, activated JNK3 (Homo sapiens, UniProt P53779); test: JNK inhibition assay (spectrophotometric coupled-enzyme assay); conditions: for Ki: 10 nM activated JNK3, 10 μM ATP, read-out: Activity in the JNK3 Inhibition Assay (Ki rating A-C)
T1 construct: One such construct encodes amino acid residues Ser40-Glu402 of JNK3α1 and is preceded by Met and Gly residues; Met-Gly (initiator methionine and added glycine) (N); made in house; host or cells: E. coli BL21 (DE3)
How it was run: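 Activated (doubly phosphorylated, MKK7(DD)-activated) human JNK3, 10 nM, preincubated 10 min at 30 °C with inhibitor in 0.1 M HEPES pH 7.5, 10 mM MgCl2, 200 μM EGF receptor peptide, PK/LDH-coupled. Started with 10 μM ATP; A340 decrease followed at 30 °C. Ki from competitive inhibition model fit.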

[1] = molecular target: T2, full length recombinant human Src kinase (Homo sapiens, UniProt P12931); test: Src inhibition assay (33P incorporation into poly Glu-Tyr); conditions: for Ki: 10 μM ATP, read-out: Activity in the SRC Inhibition Assay (Ki rating A-C); for inhibition at 2 µM: at a 2 μM inhibitor concentration, read-out: Activity in the SRC Inhibition Assay (percent inhibition rating D-F)
T2 construct: full length recombinant human Src kinase; purchased Upstate Biotechnology 14-117; host or cells: baculo viral cells (baculovirus expression)
Procedure: The compounds were assayed as inhibitors of full length recombinant human Src kinase (from Upstate Biotechnology, cat. no. 14-117) expressed and purified from baculo viral cells. Src kinase activity was monitored by following the incorporation of ^33P from ATP into the tyrosine of a random poly Glu-Tyr polymer substrate of composition, Glu:Tyr=4:1 (Sigma, cat. no. P-0275). The following were the final concentrations of the assay components: 0.05 M HEPES, pH 7.6, 10 mM MgCl2, 2 mM DTT, 0.25 mg/ml BSA, 10 μM ATP (1-2 μCi ^33P-ATP per reaction), 5 mg/ml poly Glu-Tyr, and 1-2 units of recombinant human Src kinase. In a typical assay, all the reaction components with the exception of ATP were pre-mixed and aliquoted into assay plate wells. […] The assay plate was incubated at 30° C. for 10 min before initiating the reaction with ^33P-ATP. After 20 min of reaction, the reactions were quenched with 150 μl of 10% trichloroacetic acid (TCA) containing 20 mM Na3PO4. The quenched samples were then transferred to a 96-well filter plate (Whatman, UNI-Filter GF/F Glass Fiber Filter, cat no. 7700-3310) installed on a filter plate vacuum manifold. Filter plates were washed four times with 10% TCA containing 20 mM Na3PO4 and then 4 times with methanol. 200 μl of scintillation fluid was then added to each well. The plates were sealed and the amount of radioactivity associated with the filters was quantified on a TopCount scintillation counter.

CDK-2/Cyclin A = CDK-2/Cyclin A (Homo sapiens, UniProt P24941); test: CDK2 inhibition assay (standard coupled enzyme assay); conditions: 25 nM CDK-2/Cyclin A; read-out: CDK2 Inhibitory Activity (Ki rating A-C)
How it was run: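 CDK-2/Cyclin A (25 nM final) started the reaction after 10-min, 30° C preincubation of compound (30 μM final) with peptide (100 μM), ATP and coupling enzymes in HEPES pH 7.5.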

[2] = molecular target: Glycogen Synthase Kinase 3 (GSK-3) (Homo sapiens, UniProt P49841); test: GSK-3 inhibition assay (standard coupled enzyme assay); conditions: 60 nM GSK-3, 10 μM ATP; read-out: GSK-3 Inhibitory Activity (Ki rating A-C)
Procedure: Compounds were screened in the following manner for their ability to inhibit Glycogen Synthase Kinase 3 (GSK-3) using a standard coupled enzyme assay (Fox et al (1998) Protein Sci 7, 2249). To an assay stock buffer solution containing 0.1M HEPES 7.5, 10 mM MgCl2, 25 mM NaCl, 2.5 mM phosphoenolpyruvate, 300 μM NADH, 1 mM DTT, 30 μg/mL pyruvate kinase, 10 μg/mL lactate dehydrogenase, 300 μM peptide (HSSPHQp-SEDEEE, American Peptide, Sunnyvale, Calif.), and 60 nM GSK-3, was added a 30 μM solution of the compound in DMSO and the resulting mixture incubated at 30° C. for 5 min. The reaction was initiated by the addition of 10 μM ATP. The rates of reaction were obtained by monitoring absorbance at 340 nm over a 5 minute read time at 30° C. using a Molecular Devices plate reader (Sunnyvale, Calif.). The IC50 was determined from the rate data as a function of inhibitor concentration.

[3] = molecular target: T3, Lck kinase purified from bovine thymus (Bos taurus, UniProt Q3ZCM0); test: Lck inhibition assay (33P incorporation into poly Glu-Tyr); conditions: 10 μM ATP; read-out: Activity in the Lck Inhibition Assay (Ki rating A-C)
T3 construct: Lck kinase purified from bovine thymus; purchased Upstate Biotechnology 14-106; host or cells: bovine thymus (tissue-purified)
How it was run: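 Filter-binding radiometric assay of 33P transfer from ATP to poly Glu-Tyr (4:1, 5 mg/ml) by bovine thymus Lck in 0.05 M HEPES pH 7.6, 10 mM MgCl2, 2 mM DTT, 0.25 mg/ml BSA, 10 μM ATP. After 10 min at 30° C, reaction started with 33P-ATP, run 20 min, quenched with TCA; filter-bound radioactivity counted by scintillation.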

T2 sequence (P12931 whole entry): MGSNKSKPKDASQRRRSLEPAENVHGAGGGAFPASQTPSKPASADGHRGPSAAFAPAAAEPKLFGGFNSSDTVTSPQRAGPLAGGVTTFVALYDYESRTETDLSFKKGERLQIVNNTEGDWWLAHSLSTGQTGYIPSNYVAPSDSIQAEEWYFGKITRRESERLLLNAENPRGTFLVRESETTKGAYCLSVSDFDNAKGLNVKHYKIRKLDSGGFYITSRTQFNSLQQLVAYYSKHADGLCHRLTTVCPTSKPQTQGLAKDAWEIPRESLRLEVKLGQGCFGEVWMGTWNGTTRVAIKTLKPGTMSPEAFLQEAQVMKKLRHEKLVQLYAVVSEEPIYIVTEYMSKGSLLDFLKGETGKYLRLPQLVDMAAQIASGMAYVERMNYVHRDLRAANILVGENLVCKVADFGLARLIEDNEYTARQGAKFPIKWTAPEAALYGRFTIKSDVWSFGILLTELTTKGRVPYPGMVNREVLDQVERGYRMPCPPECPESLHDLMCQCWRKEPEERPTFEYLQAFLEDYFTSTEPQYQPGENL
Chain of Glycogen Synthase Kinase 3 (GSK-3) (P49841 whole entry): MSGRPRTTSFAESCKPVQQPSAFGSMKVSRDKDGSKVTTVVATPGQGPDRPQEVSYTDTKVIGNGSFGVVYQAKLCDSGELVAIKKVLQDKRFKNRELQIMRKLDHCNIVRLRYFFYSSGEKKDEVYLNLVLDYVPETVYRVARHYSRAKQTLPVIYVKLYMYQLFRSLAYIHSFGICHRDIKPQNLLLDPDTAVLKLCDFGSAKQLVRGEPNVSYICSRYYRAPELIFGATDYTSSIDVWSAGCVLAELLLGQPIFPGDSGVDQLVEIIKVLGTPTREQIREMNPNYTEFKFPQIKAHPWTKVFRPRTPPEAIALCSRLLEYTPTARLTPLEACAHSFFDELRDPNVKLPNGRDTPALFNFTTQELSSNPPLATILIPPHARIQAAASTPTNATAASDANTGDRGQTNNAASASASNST
T3 sequence (Q3ZCM0 1-509): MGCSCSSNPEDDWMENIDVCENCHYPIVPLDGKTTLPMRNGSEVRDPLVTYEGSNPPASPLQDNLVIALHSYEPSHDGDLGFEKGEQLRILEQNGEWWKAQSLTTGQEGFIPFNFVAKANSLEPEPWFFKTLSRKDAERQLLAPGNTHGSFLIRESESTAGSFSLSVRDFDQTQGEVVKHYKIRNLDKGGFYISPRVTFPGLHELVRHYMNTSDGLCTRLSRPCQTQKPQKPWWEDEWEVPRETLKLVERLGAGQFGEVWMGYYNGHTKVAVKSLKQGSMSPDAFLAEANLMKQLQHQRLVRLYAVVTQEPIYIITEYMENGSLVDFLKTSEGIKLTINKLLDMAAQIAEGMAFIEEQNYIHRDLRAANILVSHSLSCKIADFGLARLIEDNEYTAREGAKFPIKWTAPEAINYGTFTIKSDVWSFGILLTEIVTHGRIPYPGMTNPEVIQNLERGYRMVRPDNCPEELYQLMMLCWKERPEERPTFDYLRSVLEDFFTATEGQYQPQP
T1 sequence (P53779 40-402): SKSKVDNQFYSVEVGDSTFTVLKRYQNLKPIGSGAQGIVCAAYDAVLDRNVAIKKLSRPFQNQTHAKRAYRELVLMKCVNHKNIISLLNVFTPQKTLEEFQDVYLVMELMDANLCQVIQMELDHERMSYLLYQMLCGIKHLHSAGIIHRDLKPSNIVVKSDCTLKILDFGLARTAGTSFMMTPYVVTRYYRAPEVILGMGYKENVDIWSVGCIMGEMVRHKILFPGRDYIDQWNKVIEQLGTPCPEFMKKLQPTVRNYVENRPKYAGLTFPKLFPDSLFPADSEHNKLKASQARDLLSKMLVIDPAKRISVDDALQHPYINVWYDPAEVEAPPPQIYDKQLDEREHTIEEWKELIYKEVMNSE

Ki (activated JNK3) [nM]	Ki [1] [nM]	Ki (CDK-2/Cyclin A) [nM]	Ki [2] [nM]	inhibition at 2 µM [1] [%]	Ki [3] [nM]	SMILES	Activity in the JNK3 Inhibition Assay (percent inhibition rating D-F) (activated JNK3; at a 2 μM inhibitor concentration)
100 to 1000	> 1000	> 5000	> 1000			COc1cc(-c2ccnc(Nc3ccc(Cl)cc3)n2)cc(OC)c1OC [Compound I-1]	
< 100		> 5000		< 33	> 1000	COc1cc(-c2ccnc(Nc3ccc(F)cc3)n2)cc(OC)c1OC [Compound I-3]	
100 to 1000	> 1000	> 5000	> 1000			COc1cc(-c2ccnc(NC3CCCCC3)n2)cc(OC)c1OC [Compound I-4]	
< 100		> 5000	100 to 1000	< 33		COc1cc(Nc2nccc(-c3cc(OC)c(OC)c(OC)c3)n2)cc(OC)c1 [Compound I-12]	
< 100		> 5000		24 to 66		COc1cc(-c2ccnc(Nc3cccc(F)c3F)n2)cc(OC)c1OC [Compound I-13]	
100 to 1000			100 to 1000	24 to 66		COc1c(Br)cc(-c2ccnc(Nc3cccc(F)c3)n2)cc1Br [Compound I-48]	
< 100		> 5000	< 100	67 to 100		COc1cc(-c2ccnc(Nc3cccc(Br)c3)n2)cc(OC)c1OC [Compound I-59]	
< 100		> 5000		67 to 100		COc1cc(-c2ccnc(Nc3cccc(F)c3)n2)cc(OC)c1OC [Compound I-60]	
< 100		> 5000		< 33		COc1cc(-c2ccnc(Nc3ccc(Cl)nc3)n2)cc(OC)c1OC [Compound I-61]	
< 100			100 to 1000	< 33		COc1cc(-c2ccnc(Nc3ccc4ccccc4c3)n2)cc(OC)c1OC [Compound I-62]	
< 100			< 100	67 to 100		COc1cc(-c2ccnc(Nc3cccc(Cl)c3)n2)cc2c1OCCO2 [Compound I-75]	
< 100				24 to 66		COc1cc(-c2ccnc(Nc3ccc(Cl)cc3)n2)cc2c1OCCO2 [Compound I-76]	
< 100				24 to 66		COc1ccc(Nc2nccc(-c3cc(OC)c4c(c3)OCCO4)n2)cc1 [Compound I-78]	
< 100				24 to 66		COc1cc(-c2ccnc(Nc3cccc(F)c3)n2)cc2c1OCCO2 [Compound I-79]	
< 100				24 to 66		COc1cc(-c2ccnc(Nc3ccc(F)cc3)n2)cc2c1OCCO2 [Compound I-80]	
< 100				67 to 100		COc1cc(-c2ccnc(Nc3cccc(C)c3)n2)cc2c1OCCO2 [Compound I-81]	
< 100				< 33		COc1cc(-c2ccnc(Nc3ccc(C)cc3)n2)cc2c1OCCO2 [Compound I-82]	
	< 100				< 100	COc1ccc(-c2ccnc(Nc3cccc(Oc4ccccc4)c3)n2)c(OC)c1OC [II-1]	
	< 100				100 to 1000	COc1ccc(-c2ccnc(Nc3cccc(S(=O)(=O)c4ccccc4)c3)n2)c(OC)c1OC [II-24]	
	100 to 1000	> 5000			> 1000	COc1ccc(-c2ccnc(Nc3cccc(-c4ccccc4C)c3)n2)c(OC)c1OC [II-62]	
	< 100				100 to 1000	COc1ccc(-c2ccnc(Nc3cccc(-c4ccc(C)cc4)c3)n2)c(OC)c1OC [II-63]	
	< 100		> 1000			COc1ccc(-c2cccc(F)c2)cc1Nc1nccc(-c2ccc(OC)c(OC)c2OC)n1 [II-64]	
	100 to 1000		> 1000			COc1ccc(-c2cccc(Cl)c2)cc1Nc1nccc(-c2ccc(OC)c(OC)c2OC)n1 [II-65]	
	> 1000		> 1000			COc1ccc(-c2ccnc(Nc3cc(-c4cccc(Cl)c4)ccc3F)n2)c(OC)c1OC [II-66]	
	< 100		< 100			COc1ccc(Nc2nccc(-c3ccc(OC)c(OC)c3OC)n2)cc1-c1cccc(Cl)c1 [II-67]	
	100 to 1000		< 100			COc1ccc(Nc2nccc(-c3ccc(OC)c(OC)c3OC)n2)cc1-c1ccc(Cl)cc1 [II-68]	
	< 100		< 100			COc1ccc(Nc2nccc(-c3ccc(OC)c(OC)c3OC)n2)cc1-c1cccc(F)c1 [II-69]	

SMILES	Ki (activated JNK3) [nM]	Ki [1] [nM]	Ki (CDK-2/Cyclin A) [nM]	Ki [2] [nM]	inhibition at 2 µM [1] [%]	Ki [3] [nM]	Activity in the JNK3 Inhibition Assay (percent inhibition rating D-F) (activated JNK3; at a 2 μM inhibitor concentration)
COc1ccc(Nc2nccc(-c3cc(OC)c(OC)c(OC)c3)n2)cc1OC [Compound I-64]				100 to 1000	67 to 100		F (percent inhibition of between 67% and 100%)
